Read-outs that look alike come from different tables or passages of the source.
Assays:
HeLa = test: cells; format: cell-based; conditions: read-out: IC50 against cell proliferation, HeLa
[1] = system: LO2 cell lines (normal liver cell); conditions: for IC50: read-out: IC50 LO2
WI38 normal cells [2] = test: cells; conditions: Homo sapiens, WI-38, read-out: IC50 WI38
WI38 normal cells [3] = conditions: for IC50: read-out: IC50 WI38
A549 = test: cells; format: cell-based
[4] = system: HepG2 cell lines (liver tumor cell); test: cells; conditions: Homo sapiens, HepG2, 24 h, read-out: IC50 HepG2
[5] = system: HepG2 cell lines (liver tumor cell); conditions: for IC50: read-out: IC50 HepG2
[6] = system: LO2 cell lines (normal liver cell); test: cells; conditions: Homo sapiens, L02, 24 h, read-out: IC50 LO2
MCF-7 = test: cells; format: cell-based
[7] = H2S release, methylene blue (MB+) method; format: physicochemical; conditions: MB+ method with TECP or cysteine; different temperature and pH
AKT = test: In vitro AKT enzyme inhibitory assay; format: biochemical
PI3Kγ = PI3Kγ (Homo sapiens, UniProt P48736); test: In vitro PI3K enzyme inhibitory assay (ADP-Glo), PI3Kγ; format: biochemical; conditions: read-out: PI3Kγ % inhibition at 10 μM
PI3Kα = PI3Kα (Homo sapiens, UniProt P42336); test: In vitro PI3K enzyme inhibitory assay (ADP-Glo), PI3Kα; format: biochemical; conditions: read-out: PI3Kα % inhibition at 10 μM
PI3Kβ = PI3Kβ (Homo sapiens, UniProt P42338); test: In vitro PI3K enzyme inhibitory assay (ADP-Glo), PI3Kβ; format: biochemical; conditions: read-out: PI3Kβ % inhibition at 10 μM
[8] = Homo sapiens, A549, read-out: IC50 against cell proliferation, A549
[9] = Homo sapiens, MCF7, read-out: IC50 against cell proliferation, MCF-7
[10] = read-out: IC50 against cell proliferation, A549
[11] = read-out: IC50 against cell proliferation, MCF-7

Sequence of PI3Kγ (P48736 whole entry): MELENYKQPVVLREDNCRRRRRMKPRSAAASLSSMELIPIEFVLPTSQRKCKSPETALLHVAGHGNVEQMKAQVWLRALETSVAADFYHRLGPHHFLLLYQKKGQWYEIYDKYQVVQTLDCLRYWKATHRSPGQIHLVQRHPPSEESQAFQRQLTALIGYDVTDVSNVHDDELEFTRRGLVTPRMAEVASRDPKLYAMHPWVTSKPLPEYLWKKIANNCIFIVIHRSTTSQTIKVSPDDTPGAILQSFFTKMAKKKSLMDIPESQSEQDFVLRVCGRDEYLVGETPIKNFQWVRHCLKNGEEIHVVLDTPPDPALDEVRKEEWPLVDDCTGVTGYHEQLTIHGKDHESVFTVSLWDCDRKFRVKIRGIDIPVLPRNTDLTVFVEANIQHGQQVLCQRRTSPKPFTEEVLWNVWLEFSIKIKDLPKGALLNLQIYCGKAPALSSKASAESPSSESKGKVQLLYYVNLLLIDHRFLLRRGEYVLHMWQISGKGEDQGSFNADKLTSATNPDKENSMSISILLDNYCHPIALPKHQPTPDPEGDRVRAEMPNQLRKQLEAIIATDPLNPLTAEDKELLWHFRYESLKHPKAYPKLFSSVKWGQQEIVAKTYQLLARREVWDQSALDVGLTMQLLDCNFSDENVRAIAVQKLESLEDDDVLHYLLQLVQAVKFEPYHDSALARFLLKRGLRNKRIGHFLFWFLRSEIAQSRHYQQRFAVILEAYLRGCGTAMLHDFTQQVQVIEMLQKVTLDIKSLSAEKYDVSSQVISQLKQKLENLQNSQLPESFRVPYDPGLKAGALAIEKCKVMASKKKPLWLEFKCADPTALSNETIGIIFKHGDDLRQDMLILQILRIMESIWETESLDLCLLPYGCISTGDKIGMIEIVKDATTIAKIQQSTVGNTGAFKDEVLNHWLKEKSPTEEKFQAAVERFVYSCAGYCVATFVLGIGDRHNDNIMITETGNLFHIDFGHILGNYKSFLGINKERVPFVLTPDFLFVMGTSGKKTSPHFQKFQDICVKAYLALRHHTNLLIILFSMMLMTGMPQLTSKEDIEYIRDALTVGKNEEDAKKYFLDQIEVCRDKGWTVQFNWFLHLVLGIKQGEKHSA
Sequence of PI3Kα (P42336 whole entry): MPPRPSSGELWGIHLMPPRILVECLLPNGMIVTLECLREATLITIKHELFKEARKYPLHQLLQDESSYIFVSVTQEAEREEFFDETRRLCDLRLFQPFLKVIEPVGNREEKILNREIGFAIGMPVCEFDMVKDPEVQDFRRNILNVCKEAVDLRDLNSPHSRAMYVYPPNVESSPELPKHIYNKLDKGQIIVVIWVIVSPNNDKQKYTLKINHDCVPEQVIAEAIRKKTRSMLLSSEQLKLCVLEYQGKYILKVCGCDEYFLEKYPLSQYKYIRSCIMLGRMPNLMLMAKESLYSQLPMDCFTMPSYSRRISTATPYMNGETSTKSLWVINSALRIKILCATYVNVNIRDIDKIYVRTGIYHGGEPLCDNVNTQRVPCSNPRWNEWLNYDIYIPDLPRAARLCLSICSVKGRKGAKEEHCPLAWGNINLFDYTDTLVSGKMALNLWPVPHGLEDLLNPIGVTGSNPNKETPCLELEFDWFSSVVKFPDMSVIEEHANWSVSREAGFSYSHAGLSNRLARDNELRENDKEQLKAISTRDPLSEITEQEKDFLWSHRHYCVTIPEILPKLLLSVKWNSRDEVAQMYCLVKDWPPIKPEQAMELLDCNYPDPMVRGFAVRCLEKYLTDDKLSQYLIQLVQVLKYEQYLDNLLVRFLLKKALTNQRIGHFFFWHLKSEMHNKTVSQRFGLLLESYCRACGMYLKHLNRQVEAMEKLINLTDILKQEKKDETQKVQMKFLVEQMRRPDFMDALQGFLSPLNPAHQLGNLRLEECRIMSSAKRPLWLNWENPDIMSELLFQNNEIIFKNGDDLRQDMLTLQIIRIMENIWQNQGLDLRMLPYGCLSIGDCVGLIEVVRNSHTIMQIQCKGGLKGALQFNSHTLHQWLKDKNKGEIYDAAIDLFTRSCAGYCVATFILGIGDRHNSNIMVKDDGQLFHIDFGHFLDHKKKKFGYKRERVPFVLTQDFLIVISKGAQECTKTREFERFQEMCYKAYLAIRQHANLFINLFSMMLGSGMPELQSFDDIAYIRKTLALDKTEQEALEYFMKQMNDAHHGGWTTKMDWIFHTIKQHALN
Sequence of PI3Kα (P27986 whole entry partner): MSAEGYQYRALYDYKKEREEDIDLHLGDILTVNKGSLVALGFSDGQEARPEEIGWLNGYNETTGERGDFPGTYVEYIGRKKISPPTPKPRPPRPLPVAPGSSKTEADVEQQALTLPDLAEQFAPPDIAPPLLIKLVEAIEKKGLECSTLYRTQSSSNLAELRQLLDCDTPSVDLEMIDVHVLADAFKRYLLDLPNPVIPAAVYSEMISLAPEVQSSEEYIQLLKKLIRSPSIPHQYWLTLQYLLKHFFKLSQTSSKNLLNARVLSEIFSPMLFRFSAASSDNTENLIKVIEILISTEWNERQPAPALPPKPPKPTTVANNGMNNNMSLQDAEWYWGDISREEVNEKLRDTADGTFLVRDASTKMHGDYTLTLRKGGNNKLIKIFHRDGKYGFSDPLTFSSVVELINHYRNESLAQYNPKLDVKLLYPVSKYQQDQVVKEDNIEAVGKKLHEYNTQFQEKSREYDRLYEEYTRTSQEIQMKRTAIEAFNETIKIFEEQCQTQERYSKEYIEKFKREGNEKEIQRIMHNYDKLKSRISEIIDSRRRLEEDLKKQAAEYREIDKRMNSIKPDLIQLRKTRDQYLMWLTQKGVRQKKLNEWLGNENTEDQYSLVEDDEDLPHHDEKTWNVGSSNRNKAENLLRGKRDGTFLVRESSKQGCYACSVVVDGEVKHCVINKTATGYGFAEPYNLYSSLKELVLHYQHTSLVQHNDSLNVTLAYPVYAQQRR
Sequence of PI3Kβ (P42338 whole entry): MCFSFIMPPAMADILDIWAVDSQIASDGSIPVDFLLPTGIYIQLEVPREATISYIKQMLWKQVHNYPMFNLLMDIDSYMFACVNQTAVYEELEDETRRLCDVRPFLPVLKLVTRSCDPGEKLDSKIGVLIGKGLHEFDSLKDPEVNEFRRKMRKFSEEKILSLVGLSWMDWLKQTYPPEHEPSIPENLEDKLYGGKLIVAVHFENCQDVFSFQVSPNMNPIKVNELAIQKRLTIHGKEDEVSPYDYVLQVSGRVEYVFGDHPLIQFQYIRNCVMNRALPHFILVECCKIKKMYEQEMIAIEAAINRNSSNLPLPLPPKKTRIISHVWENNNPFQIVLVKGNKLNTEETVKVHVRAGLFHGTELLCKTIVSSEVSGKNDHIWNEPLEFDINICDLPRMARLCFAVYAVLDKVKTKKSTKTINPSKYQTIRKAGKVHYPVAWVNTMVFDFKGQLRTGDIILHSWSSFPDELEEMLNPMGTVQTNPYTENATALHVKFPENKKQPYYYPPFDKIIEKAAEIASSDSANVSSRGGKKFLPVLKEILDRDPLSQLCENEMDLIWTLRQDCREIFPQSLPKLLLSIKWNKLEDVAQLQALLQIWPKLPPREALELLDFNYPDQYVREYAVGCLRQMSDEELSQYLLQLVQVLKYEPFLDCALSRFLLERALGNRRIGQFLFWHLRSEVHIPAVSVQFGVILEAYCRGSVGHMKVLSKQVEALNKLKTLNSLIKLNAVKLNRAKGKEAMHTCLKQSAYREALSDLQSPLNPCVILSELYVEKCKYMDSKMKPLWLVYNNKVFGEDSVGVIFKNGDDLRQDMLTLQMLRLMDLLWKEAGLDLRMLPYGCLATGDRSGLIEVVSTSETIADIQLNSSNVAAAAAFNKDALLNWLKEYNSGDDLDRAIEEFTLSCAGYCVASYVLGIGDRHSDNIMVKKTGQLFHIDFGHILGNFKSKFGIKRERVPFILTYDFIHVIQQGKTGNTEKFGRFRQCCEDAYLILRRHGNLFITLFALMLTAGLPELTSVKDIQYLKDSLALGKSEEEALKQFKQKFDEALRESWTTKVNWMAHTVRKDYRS
Sequence of PI3Kβ (P27986 whole entry partner): as the sequence (P27986 whole entry partner) above

AKT % inhibition at 10 μM (AKT) [%]	inhibition at 10 µM (PI3Kγ) [%]	inhibition at 10 µM (PI3Kα) [%]	inhibition at 10 µM (PI3Kβ) [%]	SMILES	IC50 (HeLa; Homo sapiens, HeLa) [µM]	Toxicity in words, LO2 [1]	IC50 (WI38 normal cells [2]) [µM]	Toxicity in words, WI38 (WI38 normal cells [3])	IC50 (A549; [8]) [µM]	IC50 [4] [µM]	Toxicity in words, HepG2 [5]	IC50 [6] [µM]	IC50 (MCF-7; [9]) [µM]	IC50 (HeLa) [µM]	IC50 [1] [µM]	IC50 (WI38 normal cells [3]) [µM]	IC50 (A549; [10]) [µM]	IC50 [5] [µM]	IC50 (MCF-7; [11]) [µM]	H2S release amount (in words) [7]
				S=P1(c2ccccc2)NCCO1 (stereo not drawn) [Compound S2, 2-phenyl-1,3,2-oxazaphospholidine 2-sulfide]	736 ± 22.1	low cytotoxicity	> 200	low cytotoxicity	650 ± 32.5	> 400	low cytotoxicity	> 200	455 ± 3.2							
				S=P1(c2ccccc2)NCCCO1 (stereo not drawn) [Compound S3, 2-phenyl-1,3,2-oxazaphosphinane 2-sulfide]	826 ± 17.1	low cytotoxicity	> 200	low cytotoxicity	700 ± 32.3	> 400	low cytotoxicity	> 200	470 ± 4.1							
				S=P1(c2ccccc2)NCCCCO1 (stereo not drawn) [Compound S4, 2-phenyl-1,3,2-oxazaphosphepane 2-sulfide]	836 ± 19.7	low cytotoxicity	> 200	low cytotoxicity	720 ± 22.4	> 400	low cytotoxicity	> 200	472 ± 3.3							
				S=P1(c2ccccc2)NCCCCCO1 (stereo not drawn) [Compound S5, 2-phenyl-1,3,2-oxazaphosphocane 2-sulfide]	622 ± 20.6	low cytotoxicity	> 200	low cytotoxicity	680 ± 20.5	> 400	low cytotoxicity	> 200	468 ± 3.4							
				S=P1(c2ccccc2)NCCCCCCO1 (stereo not drawn) [Compound S6, 2-phenyl-1,3,2-oxazaphosphonane 2-sulfide]	645 ± 15.5	low cytotoxicity	> 200	low cytotoxicity	710 ± 22.6	> 400	low cytotoxicity	> 200	471 ± 5.4							
				S=P1(c2ccccc2)NCCCCN1 [Compound S7, 2-phenyl-1,3,2-diazaphosphepane 2-sulfide]	655 ± 15.3	low cytotoxicity	> 200	low cytotoxicity	730 ± 32.3	> 400	low cytotoxicity	> 200	473 ± 4.2							
				S=P1(c2ccccc2)OCCCCO1 [Compound S8, 2-phenyl-1,3,2-dioxaphosphepane 2-sulfide]		low cytotoxicity		low cytotoxicity			low cytotoxicity			730 ± 20.5	> 200	> 200	803 ± 20.8	> 400	480 ± 3.8	
				S=P1(c2ccccc2)NCNCN1 [Compound S9, 2-phenyl-1,3,5,2-triazaphosphinane 2-sulfide]	730 ± 20.7	low cytotoxicity	> 200	low cytotoxicity	590 ± 27.1	> 400	low cytotoxicity	> 200	459 ± 3.7							
				S=P1(c2ccccc2)SCCS1 [Compound S10, 2-phenyl-1,3,2-dithiaphospholane 2-sulfide]	603 ± 20.8	low cytotoxicity	> 200	low cytotoxicity	557 ± 18.5	> 400	low cytotoxicity	> 200	455 ± 2.4							
				S=P1(c2ccccc2)Oc2ccccc2-c2ccccc2O1 [Compound S12, 6-phenyldibenzo [d, f][1,3,2] dioxaphosphepine 6-sulfide]	703 ± 17.7	low cytotoxicity	> 200	low cytotoxicity	640 ± 15.5	> 400	low cytotoxicity	> 200	164 ± 4.1							
				S=P1(c2ccccc2)OCc2ccccc2CO1 [Compound S13, 3-phenyl-1,5-dihydrobenzo [e] [1,3,2] dioxaphosphepine 3-sulfide]	633 ± 18.3	low cytotoxicity	> 200	low cytotoxicity	500 ± 18.2	> 400	low cytotoxicity	> 200	460 ± 3.5							
				Cc1ccc2c(c1)NP(=S)(c1ccccc1)O2 (stereo not drawn) [Compound S14, 5-methyl-2-phenyl-3H benzo [d][1,3,2] oxazaphosphole 2-sulfide]										530 ± 11.3	> 200	> 200	220 ± 20.1	> 400	31 ± 2.5	the highest amount of hydrogen sulfide was released
				S=P1(c2ccccc2)Oc2ccc3cccc4c5cccc6ccc(c(c2c34)c65)O1 [Compound S15, 2-phenylperyleno [1,12-def][1,3,2] dioxaphosphepine 2-sulfide]	733 ± 28.2		> 200		520 ± 22.7	> 400		> 200	266 ± 3.5							
				N#Cc1ccc2c(c1)NP(=S)(c1ccccc1)O2 (stereo not drawn) [Compound S16, 2-phenyl-3H-benzo [d][1,3,2] oxazaphosphole-5-carbonitrile 2-sulfide]										520 ± 20.3	> 200	> 200	280 ± 28.3	> 400	28 ± 2.7	the highest amount of hydrogen sulfide was released
100	12	100	5	Oc1cccc(-c2nc(N3CCOCC3)c3oc4ncccc4c3n2)c1 [PI-103, reference compound]																
